From ChEMBL document CHEMBL1136269, “Discovery of a series of (4,5-dihydroimidazol-2-yl)-biphenylamine 5-HT7 agonists” (Bioorg Med Chem Lett, 2003)

Tests used:
[1] = target: T1, Adrenergic receptor alpha-1 (Rattus norvegicus, UniProt P15823+P23944+P43140); experiment: Affinity for Alpha-1 adrenergic receptor of rat cortical membranes
T1 sequence (P15823 whole entry): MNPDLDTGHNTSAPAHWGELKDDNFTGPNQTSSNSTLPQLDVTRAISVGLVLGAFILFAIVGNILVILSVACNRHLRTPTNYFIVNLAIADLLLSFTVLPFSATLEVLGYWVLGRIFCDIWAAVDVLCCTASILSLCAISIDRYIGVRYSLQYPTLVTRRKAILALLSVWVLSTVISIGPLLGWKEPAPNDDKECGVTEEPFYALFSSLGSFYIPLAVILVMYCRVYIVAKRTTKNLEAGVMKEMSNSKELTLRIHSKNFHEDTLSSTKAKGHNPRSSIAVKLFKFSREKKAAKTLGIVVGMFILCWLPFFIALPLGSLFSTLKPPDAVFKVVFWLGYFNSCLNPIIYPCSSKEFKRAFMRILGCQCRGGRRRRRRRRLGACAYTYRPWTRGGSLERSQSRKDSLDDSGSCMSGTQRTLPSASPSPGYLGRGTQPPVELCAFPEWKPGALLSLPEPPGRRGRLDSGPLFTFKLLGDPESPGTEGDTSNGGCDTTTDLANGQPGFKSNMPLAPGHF
T1 sequence (P23944 whole entry): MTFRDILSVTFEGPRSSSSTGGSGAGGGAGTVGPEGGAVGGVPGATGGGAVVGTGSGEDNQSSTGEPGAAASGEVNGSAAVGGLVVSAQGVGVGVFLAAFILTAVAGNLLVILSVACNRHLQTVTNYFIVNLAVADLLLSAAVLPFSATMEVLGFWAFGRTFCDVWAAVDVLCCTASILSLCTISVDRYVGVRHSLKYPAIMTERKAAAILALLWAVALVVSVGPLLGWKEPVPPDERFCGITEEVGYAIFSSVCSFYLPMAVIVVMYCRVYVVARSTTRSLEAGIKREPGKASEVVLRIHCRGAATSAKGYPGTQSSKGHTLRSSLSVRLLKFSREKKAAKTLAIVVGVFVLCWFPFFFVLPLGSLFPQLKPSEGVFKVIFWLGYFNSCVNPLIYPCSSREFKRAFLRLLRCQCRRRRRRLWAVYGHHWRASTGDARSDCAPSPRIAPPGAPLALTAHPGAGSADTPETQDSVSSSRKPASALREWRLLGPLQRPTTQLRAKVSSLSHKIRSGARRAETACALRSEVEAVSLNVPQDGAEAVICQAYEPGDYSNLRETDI
T1 sequence (P43140 whole entry): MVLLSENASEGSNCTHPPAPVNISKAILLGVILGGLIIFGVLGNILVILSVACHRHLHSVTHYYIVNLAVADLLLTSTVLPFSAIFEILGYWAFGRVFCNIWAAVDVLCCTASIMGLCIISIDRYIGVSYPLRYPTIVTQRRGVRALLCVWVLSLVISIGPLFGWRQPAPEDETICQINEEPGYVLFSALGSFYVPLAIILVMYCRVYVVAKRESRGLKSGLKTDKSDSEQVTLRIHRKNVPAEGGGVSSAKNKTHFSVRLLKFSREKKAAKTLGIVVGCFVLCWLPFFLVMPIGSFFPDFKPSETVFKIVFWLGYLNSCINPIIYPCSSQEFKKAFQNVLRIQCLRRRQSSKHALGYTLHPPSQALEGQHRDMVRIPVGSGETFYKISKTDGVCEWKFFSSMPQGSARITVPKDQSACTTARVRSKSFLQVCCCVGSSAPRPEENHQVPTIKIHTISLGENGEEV

[2] = target: 5-hydroxytryptamine receptor 7 (Rattus norvegicus, UniProt P32305); experiment: Inhibition of [3H]-5-CT binding to 5-hydroxytryptamine 7 receptor of rat cortical membranes; format: cell membranes, Membrane
[3] = target: T2, Adrenergic receptor alpha-2 (Rattus norvegicus, UniProt P22086+P19328+P22909); experiment: Affinity for Alpha-2 adrenergic receptor of rat cortical membranes
T2 sequence (P22086 whole entry): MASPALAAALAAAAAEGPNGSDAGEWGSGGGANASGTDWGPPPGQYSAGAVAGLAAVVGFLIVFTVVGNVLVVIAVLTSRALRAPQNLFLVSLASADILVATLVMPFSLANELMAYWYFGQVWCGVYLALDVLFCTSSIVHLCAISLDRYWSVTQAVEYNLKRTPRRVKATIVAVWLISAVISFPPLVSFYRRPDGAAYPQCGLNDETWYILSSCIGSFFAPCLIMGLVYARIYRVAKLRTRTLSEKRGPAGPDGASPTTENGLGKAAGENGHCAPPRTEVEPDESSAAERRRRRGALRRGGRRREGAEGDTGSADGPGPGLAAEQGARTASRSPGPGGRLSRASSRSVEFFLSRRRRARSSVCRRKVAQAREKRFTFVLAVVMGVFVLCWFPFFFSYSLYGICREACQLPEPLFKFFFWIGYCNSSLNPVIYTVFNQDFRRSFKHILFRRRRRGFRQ
T2 sequence (P19328 whole entry): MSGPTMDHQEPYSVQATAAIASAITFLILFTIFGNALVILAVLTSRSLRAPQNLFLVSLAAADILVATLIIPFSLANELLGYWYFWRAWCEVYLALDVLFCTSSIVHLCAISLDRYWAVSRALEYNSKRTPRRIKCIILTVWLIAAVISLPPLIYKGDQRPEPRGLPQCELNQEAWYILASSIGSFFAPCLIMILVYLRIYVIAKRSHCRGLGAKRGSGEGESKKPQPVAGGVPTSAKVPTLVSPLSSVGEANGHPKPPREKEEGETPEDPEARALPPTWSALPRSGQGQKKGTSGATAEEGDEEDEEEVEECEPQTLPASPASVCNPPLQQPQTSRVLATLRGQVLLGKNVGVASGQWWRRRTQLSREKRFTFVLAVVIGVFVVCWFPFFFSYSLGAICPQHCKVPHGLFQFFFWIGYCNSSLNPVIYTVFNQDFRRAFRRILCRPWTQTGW
T2 sequence (P22909 whole entry): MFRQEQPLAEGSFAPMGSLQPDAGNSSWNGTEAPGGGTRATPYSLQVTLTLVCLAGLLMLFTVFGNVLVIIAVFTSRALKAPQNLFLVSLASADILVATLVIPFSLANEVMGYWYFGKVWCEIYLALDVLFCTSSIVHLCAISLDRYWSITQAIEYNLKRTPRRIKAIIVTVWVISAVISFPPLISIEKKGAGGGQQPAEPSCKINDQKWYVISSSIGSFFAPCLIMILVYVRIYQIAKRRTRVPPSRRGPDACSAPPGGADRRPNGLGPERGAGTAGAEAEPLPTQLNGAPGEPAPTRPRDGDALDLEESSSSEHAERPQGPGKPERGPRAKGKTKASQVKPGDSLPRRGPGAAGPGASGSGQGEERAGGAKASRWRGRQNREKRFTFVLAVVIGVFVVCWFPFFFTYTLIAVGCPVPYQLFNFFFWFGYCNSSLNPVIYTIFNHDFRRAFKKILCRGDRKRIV

Sequence of 5-hydroxytryptamine receptor 7 (P32305 whole entry): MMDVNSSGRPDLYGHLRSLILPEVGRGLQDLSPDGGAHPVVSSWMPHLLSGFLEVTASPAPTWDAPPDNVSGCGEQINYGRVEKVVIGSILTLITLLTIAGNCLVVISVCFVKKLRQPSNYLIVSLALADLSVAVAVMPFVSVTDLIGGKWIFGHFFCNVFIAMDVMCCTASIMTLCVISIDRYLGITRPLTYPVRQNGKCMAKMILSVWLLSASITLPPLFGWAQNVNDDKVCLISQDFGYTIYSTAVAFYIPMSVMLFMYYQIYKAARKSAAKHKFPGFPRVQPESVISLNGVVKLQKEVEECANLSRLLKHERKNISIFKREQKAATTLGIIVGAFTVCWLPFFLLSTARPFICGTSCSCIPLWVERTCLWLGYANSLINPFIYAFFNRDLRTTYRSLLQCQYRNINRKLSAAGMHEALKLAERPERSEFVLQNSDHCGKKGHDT

Log Ki [1] | Ki [2] | Log Ki [3] | SMILES
-7.05 | 155 nM | -7.49 | CC(=O)c1cccc(-c2cccc(NC3=NCCN3)c2C)c1.Cl
-6.59 | 257 nM | -8.29 | Cc1c(NC2=NCCN2)cccc1-c1cccnc1
-6.99 | 16.6 nM | -8.21 | Cc1c(NC2=NCCN2)cccc1-c1cccs1
-6.56 | 28.2 nM | -7.58 | Cc1c(NC2=NCCN2)cccc1-c1cccc(F)c1
-6.59 | 45.7 nM | -7.1 | Cc1c(NC2=NCCN2)cccc1-c1cccc(C(F)(F)F)c1
-6.88 | 26.3 nM | -7.62 | Cc1c(NC2=NCCN2)cccc1-c1cccc(Cl)c1
-6.78 | 21.4 nM | -7.75 | Cc1cccc(-c2cccc(NC3=NCCN3)c2C)c1
-7.16 | 31.6 nM | -7.96 | Cc1c(NC2=NCCN2)cccc1-c1ccsc1
-6.68 | 40.7 nM | -7.13 | COc1ccc(-c2cccc(NC3=NCCN3)c2C)c(OC)c1
-7.04 | 170 nM | -7.66 | Cc1c(NC2=NCCN2)cccc1-c1cccc(C#N)c1.Cl
-7.36 | 35.5 nM | -8 | COc1cccc(-c2cccc(NC3=NCCN3)c2C)c1
-5.92 | 182 nM | -6.96 | Cc1c(NC2=NCCN2)cccc1-c1cccc(C(C)C)c1
-6.68 | 16.2 nM | -7.71 | Cc1c(NC2=NCCN2)cccc1-c1ccccc1
-6.58 | 27.5 nM | -7.59 | COc1ccc(-c2cccc(NC3=NCCN3)c2C)cc1
